Measured values published in ChEMBL document CHEMBL5620387, “Discovery of 4'-trifluoromethylchalcones as novel, potent and selective hCYP1B1 inhibitors without concomitant AhR activation” (Eur J Med Chem, 2023).

Experiments:
[1] = biological target: T1, Aryl hydrocarbon receptor (Homo sapiens, UniProt P35869); assay: Agonist activity at aryl hydrocarbon receptor (unknown origin) expressed in HEK293T cells assessed as luciferase activity at 10 uM measured after 24 hrs; type: toxicity, cell-based
T1 sequence (P35869 whole entry): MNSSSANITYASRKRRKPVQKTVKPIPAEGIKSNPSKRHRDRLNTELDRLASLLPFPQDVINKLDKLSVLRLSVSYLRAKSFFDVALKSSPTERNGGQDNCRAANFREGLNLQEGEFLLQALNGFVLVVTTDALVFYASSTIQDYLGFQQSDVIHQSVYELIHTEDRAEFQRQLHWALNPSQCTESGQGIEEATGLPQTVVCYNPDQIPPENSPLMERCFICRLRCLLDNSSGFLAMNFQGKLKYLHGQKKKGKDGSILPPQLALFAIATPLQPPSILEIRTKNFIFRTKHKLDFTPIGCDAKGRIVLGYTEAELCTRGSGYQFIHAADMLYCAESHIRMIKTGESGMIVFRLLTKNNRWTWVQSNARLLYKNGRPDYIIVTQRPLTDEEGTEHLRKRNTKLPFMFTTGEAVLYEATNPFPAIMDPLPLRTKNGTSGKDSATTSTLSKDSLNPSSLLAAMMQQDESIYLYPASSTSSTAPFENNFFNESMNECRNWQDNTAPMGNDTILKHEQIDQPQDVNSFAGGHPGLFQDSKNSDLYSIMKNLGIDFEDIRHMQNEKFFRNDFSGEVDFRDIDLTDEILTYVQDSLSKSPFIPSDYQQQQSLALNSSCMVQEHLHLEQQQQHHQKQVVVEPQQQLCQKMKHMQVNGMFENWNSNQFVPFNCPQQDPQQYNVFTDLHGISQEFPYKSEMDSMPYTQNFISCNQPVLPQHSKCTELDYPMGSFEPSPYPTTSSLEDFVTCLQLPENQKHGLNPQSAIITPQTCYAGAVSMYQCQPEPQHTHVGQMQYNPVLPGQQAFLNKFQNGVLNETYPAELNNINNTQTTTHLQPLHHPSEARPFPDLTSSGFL

[2] = biological target: T2, Cytochrome P450 1A2 (Homo sapiens, UniProt P05177); assay: Inhibition of human recombinant CYP1A2 assessed as fluorescence of resorufin; type: ADME
T2 sequence (P05177 whole entry): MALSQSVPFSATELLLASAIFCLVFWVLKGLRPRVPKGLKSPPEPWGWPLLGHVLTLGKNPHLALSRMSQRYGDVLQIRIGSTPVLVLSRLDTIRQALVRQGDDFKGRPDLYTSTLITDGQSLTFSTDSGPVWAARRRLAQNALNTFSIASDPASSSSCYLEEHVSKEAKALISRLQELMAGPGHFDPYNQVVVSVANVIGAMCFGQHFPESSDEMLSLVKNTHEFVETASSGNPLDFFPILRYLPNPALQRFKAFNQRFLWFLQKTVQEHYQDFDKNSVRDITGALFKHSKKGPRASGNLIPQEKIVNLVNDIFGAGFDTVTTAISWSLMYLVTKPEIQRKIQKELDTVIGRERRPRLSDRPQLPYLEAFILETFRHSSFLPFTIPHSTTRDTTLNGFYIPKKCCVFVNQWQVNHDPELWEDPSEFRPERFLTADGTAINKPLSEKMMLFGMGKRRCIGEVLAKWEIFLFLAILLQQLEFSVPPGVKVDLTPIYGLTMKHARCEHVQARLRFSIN

[3] = biological target: T3, Cytochrome P450 1B1 (Homo sapiens, UniProt Q16678); assay: Inhibition of human recombinant CYP1B1 assessed as fluorescence of resorufin
T3 sequence (Q16678 whole entry): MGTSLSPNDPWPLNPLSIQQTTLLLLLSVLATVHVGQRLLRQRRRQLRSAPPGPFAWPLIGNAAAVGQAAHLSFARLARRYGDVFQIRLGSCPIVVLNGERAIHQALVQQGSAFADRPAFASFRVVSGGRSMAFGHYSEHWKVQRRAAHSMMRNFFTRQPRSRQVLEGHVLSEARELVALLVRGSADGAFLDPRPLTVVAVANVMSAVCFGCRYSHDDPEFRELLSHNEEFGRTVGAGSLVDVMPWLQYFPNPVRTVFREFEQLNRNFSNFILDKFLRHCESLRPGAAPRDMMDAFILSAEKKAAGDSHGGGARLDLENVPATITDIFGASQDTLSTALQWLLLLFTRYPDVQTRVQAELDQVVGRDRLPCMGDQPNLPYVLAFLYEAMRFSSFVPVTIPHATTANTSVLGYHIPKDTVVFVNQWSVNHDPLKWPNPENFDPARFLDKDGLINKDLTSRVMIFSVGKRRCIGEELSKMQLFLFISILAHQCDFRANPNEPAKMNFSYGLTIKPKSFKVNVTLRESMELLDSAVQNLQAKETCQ

[4] = Metabolic stability in human liver microsomes assessed as relative remaining concentration measured after 60 mins by LC-UV analysis; type: ADME, Microsome; details: read-out: INH
[5] = Metabolic stability in human liver microsomes assessed as half life measured after 60 mins by LC-UV analysis; type: ADME, Microsome
[6] = biological target: T1, Aryl hydrocarbon receptor; assay: Antagonist activity at aryl hydrocarbon receptor (unknown origin) expressed in HEK293T cells assessed as luciferase activity at 10 uM measured after 24 hrs; type: toxicity, cell-based
[7] = biological target: T4, Cytochrome P450 1A1 (Homo sapiens, UniProt P04798); assay: Inhibition of human recombinant CYP1A1 assessed as fluorescence of resorufin; type: ADME
T4 sequence (P04798 whole entry): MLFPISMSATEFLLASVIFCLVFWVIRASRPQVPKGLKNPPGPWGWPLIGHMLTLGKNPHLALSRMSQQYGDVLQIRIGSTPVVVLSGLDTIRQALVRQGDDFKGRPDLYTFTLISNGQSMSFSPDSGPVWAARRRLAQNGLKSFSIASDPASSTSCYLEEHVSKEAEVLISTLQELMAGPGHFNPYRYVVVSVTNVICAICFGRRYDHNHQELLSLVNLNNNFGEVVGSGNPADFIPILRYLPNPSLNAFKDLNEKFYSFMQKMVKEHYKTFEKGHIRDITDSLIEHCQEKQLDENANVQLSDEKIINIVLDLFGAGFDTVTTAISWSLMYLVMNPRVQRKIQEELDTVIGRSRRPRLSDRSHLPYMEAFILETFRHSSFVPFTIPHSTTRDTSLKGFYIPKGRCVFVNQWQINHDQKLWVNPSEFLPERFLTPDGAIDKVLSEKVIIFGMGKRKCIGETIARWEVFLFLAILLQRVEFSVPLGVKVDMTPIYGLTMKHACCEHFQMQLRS

[8] = biological target: Cytochrome P450 2E1 (Homo sapiens, UniProt P05181); assay: Inhibition of human CYP2E1 in human liver microsomes by LC-MS/MS analysis; type: ADME, Microsome
[9] = biological target: T5, Cytochrome P450 2A6 (Homo sapiens, UniProt P11509); assay: Inhibition of human CYP2A6 in human liver microsomes by LC-MS/MS analysis; type: ADME, Microsome
T5 sequence (P11509 whole entry): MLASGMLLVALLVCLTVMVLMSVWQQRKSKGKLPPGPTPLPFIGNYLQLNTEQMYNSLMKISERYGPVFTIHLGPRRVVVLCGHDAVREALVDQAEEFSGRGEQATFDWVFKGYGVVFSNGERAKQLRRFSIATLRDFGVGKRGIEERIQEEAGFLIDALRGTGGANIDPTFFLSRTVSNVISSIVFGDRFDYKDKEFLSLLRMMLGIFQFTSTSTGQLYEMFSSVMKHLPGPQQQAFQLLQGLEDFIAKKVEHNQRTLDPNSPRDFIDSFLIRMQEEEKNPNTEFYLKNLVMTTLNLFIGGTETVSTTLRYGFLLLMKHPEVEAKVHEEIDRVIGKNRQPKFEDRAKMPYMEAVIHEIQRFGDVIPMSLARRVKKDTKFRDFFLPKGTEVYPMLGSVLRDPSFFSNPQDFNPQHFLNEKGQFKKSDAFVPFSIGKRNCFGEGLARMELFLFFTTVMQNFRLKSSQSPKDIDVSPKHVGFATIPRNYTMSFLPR

[10] = biological target: Cytochrome P450 2C9 (Homo sapiens, UniProt P11712); assay: Inhibition of human CYP2C9 in human liver microsomes by LC-MS/MS analysis; type: ADME, Microsome
[11] = biological target: Cytochrome P450 2D6 (Homo sapiens, UniProt P10635); assay: Inhibition of human CYP2D6 in human liver microsomes by LC-MS/MS analysis; type: ADME, Microsome
[12] = biological target: Cytochrome P450 2C19 (Homo sapiens, UniProt P33261); assay: Inhibition of human CYP2C19 in human liver microsomes by LC-MS/MS analysis; type: ADME, Microsome
[13] = biological target: Cytochrome P450 3A4 (Homo sapiens, UniProt P08684); assay: Inhibition of human CYP3A4 measured after 3 mins incubation by fluorescence assay; type: ADME
[14] = biological target: T2, Cytochrome P450 1A2; assay: Inhibition of human CYP1A2 in human liver microsomes by LC-MS/MS analysis; type: ADME, Microsome
[15] = biological target: T6, Cytochrome P450 2C8 (Homo sapiens, UniProt P10632); assay: Inhibition of human CYP2C8 in human liver microsomes by LC-MS/MS analysis; type: ADME, Microsome
T6 sequence (P10632 whole entry): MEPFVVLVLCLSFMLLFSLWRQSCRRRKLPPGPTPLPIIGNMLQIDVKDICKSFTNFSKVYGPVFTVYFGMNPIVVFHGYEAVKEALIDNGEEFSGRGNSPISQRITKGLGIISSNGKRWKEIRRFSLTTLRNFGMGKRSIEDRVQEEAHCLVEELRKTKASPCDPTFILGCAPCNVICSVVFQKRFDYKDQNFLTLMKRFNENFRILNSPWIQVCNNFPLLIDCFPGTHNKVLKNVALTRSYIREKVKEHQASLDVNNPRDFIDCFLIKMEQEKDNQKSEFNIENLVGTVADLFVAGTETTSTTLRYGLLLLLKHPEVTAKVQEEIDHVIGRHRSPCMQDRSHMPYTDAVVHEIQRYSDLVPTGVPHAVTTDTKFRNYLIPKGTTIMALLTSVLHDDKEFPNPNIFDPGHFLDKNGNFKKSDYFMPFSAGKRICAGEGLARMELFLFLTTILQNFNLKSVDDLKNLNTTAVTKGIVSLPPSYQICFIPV

[16] = biological target: T3, Cytochrome P450 1B1; assay: Inhibition of human CYP1B1 overexpressed in CHO cells assessed as intracellular protein inhibition measured at 10 to 100 uM after 3 hrs; type: cell-based; details: dose 10-100 µM

Sequence of Cytochrome P450 2E1 (P05181 whole entry): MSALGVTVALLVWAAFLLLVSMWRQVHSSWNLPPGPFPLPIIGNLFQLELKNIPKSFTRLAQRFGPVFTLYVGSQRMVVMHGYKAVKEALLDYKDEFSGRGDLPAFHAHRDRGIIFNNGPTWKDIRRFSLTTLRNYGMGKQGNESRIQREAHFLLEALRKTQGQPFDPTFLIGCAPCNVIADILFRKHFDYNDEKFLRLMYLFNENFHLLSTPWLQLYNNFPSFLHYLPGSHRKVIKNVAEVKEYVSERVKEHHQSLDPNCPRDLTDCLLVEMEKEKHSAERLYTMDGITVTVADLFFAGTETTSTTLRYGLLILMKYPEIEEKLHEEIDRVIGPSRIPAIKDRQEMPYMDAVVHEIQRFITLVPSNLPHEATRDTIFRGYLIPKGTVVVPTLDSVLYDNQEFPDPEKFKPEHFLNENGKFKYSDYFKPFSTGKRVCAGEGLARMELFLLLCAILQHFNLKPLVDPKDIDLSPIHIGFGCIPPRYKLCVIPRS
Sequence of Cytochrome P450 2D6 (P10635 whole entry): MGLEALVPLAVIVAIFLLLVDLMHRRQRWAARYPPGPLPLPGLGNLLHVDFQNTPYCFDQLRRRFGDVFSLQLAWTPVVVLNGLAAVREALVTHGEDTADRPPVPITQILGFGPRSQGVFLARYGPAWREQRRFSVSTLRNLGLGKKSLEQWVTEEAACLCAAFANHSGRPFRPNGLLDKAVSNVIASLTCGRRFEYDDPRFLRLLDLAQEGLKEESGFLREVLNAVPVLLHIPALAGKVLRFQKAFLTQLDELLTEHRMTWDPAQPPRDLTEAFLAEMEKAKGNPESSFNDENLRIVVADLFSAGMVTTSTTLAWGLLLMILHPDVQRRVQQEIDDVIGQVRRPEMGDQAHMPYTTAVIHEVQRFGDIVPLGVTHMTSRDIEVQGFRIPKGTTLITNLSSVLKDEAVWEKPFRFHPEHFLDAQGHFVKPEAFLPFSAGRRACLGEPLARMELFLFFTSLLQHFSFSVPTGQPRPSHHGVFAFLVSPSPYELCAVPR
Sequence of Cytochrome P450 2C19 (P33261 whole entry): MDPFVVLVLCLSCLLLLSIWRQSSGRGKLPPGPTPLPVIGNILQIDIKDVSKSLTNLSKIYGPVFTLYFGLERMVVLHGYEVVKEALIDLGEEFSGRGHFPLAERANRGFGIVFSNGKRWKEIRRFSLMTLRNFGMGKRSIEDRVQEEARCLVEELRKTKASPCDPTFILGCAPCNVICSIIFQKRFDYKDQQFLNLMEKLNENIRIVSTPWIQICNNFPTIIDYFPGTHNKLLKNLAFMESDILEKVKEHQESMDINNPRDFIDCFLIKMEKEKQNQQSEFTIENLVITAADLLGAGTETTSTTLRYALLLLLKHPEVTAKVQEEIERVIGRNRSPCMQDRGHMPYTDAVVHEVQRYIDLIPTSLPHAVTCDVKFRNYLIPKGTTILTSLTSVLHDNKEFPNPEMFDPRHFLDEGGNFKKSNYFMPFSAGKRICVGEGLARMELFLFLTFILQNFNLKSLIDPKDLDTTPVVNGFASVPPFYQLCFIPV
Sequence of Cytochrome P450 2C9 (P11712 whole entry): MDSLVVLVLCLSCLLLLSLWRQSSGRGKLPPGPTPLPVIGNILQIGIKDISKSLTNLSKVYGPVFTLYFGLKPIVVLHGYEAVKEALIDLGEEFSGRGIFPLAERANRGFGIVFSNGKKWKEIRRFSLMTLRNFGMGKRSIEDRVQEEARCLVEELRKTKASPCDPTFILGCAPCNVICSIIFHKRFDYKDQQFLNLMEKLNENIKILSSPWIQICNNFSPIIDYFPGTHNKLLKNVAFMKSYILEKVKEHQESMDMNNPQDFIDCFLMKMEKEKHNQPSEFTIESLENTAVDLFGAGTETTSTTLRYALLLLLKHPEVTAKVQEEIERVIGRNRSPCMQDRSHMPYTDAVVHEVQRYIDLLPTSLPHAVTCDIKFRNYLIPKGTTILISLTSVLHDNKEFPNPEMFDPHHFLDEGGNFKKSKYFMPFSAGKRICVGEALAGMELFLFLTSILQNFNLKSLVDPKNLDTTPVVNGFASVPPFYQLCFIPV
Sequence of Cytochrome P450 3A4 (P08684 whole entry): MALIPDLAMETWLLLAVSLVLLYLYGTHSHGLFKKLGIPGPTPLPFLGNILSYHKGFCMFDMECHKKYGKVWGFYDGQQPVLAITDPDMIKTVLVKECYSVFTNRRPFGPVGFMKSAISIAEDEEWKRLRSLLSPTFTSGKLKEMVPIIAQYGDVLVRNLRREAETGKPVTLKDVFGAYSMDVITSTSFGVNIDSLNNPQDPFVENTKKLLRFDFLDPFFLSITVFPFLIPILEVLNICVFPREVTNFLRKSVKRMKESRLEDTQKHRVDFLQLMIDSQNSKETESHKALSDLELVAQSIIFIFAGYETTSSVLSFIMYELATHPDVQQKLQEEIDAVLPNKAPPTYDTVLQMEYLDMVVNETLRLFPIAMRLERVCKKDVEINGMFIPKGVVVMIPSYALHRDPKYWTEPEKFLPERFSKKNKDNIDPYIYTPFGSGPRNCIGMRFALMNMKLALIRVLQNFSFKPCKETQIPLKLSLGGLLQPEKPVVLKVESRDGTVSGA

CCOc1ccc(/C=C/C(=O)c2ccc(C(F)(F)F)cc2)c(OC)c1
Activity [1]: Active | IC50 [2]: > 100000 nM

Cc1ccc(C(=O)/C=C/c2ccccc2)cc1
IC50 [3]: 31 nM

CCOc1ccc(/C=C/C(=O)c2ccc(C(F)(F)F)cc2)cc1
IC50 [2]: > 100000 nM

CCCOc1ccc(/C=C/C(=O)c2ccc(C(F)(F)F)cc2)c(OC)c1
IC50 [2]: > 100000 nM

O=C(/C=C/c1ccccc1)c1ccc(Br)cc1
IC50 [3]: 36 nM

O=C(/C=C/c1ccccc1)c1ccc(Cl)cc1
IC50 [3]: 43 nM

O=C(/C=C/c1ccccc1)c1ccc([N+](=O)[O-])cc1
IC50 [3]: 280 nM

COc1cc(O)ccc1/C=C/C(=O)c1ccc(C(F)(F)F)cc1
remaining at 1 h [4]: 21% | Activity [1]: Active | half-life [5]: 35.6 min | IC50 [2]: > 100000 nM

COc1cc(OC(C)=O)ccc1/C=C/C(=O)c1ccc(C(F)(F)F)cc1
IC50 [2]: > 100000 nM

COc1cc(O)c(Cl)cc1/C=C/C(=O)c1ccc(C(F)(F)F)cc1
Activity [1]: Active | IC50 [2]: > 100000 nM

COc1ccc(C(=O)/C=C/c2ccccc2)cc1 [4'-METHOXYCHALCONE]
IC50 [3]: 180 nM

O=C(/C=C/c1ccccc1)c1ccccc1 [CHALCONE]
IC50 [3]: 305 nM

Nc1ccc(C(=O)/C=C/c2ccccc2)cc1
IC50 [3]: 1060 nM

COc1cc(OC(=O)c2cccs2)ccc1/C=C/C(=O)c1ccc(C(F)(F)F)cc1
IC50 [2]: > 100000 nM

CCCOc1ccc(/C=C/C(=O)c2ccc(C(F)(F)F)cc2)cc1
IC50 [2]: > 100000 nM

CN(C)c1ccc(C(=O)/C=C/c2ccccc2)cc1
IC50 [3]: 110 nM

COc1ccc(/C=C/C(=O)c2ccc(C(F)(F)F)cc2)c(OC)c1
remaining at 1 h [4]: 11.8% | half-life [5]: 28.9 min | IC50 [3]: 4.72 nM | IC50 [2]: > 100000 nM | Activity [6]: Active | IC50 [7]: 1690 nM

O=C(/C=C/c1ccc(F)cc1)c1ccc(C(F)(F)F)cc1
IC50 [2]: > 100000 nM

COc1cc(O)c(Br)cc1/C=C/C(=O)c1ccc(C(F)(F)F)cc1
IC50 [2]: > 100000 nM

O=C(/C=C/c1ccccc1)c1ccc(C(F)(F)F)cc1
IC50 [3]: 26.2 nM | IC50 [2]: > 100000 nM | IC50 [7]: 274 nM

Cc1ccc(/C=C/C(=O)c2ccc(C(F)(F)F)cc2)c(C)c1
IC50 [2]: > 100000 nM

C[C@]12CC[C@H]3[C@@H](CCC4=CC(=O)CC[C@@]43C)[C@@H]1CC[C@@H]2O [TESTOSTERONE]
remaining at 1 h [4]: 43.7% | half-life [5]: 58.2 min

O=C(/C=C/c1ccccc1)c1ccc(O)cc1 [4'-HYDROXYCHALCONE]
IC50 [3]: 1130 nM

COc1cc(OC)c(/C=C/C(=O)c2ccc(C(F)(F)F)cc2)cc1Br
IC50 [2]: > 100000 nM

O=C(/C=C/c1ccc(F)cc1F)c1ccc(C(F)(F)F)cc1
IC50 [2]: > 100000 nM

COc1cc(OC)c(/C=C/C(=O)c2ccc(C(F)(F)F)cc2)cc1Cl
remaining at 1 h [4]: 54.5% | IC50 [8]: > 100000 nM | IC50 [9]: > 100000 nM | IC50 [10]: > 100000 nM | IC50 [11]: > 100000 nM | IC50 [12]: > 100000 nM | IC50 [13]: > 100000 nM | IC50 [14]: > 100000 nM | IC50 [15]: > 100000 nM | half-life [5]: 64.5 min | IC50 [2]: > 100000 nM | Activity [6]: Active

COc1ccc(/C=C/C(=O)c2ccc(C(F)(F)F)cc2)cc1
IC50 [2]: > 100000 nM

Cc1ccc(/C=C/C(=O)c2ccc(C(F)(F)F)cc2)cc1
IC50 [2]: > 100000 nM

O=C(/C=C/c1ccc(O)cc1)c1ccc(C(F)(F)F)cc1
IC50 [2]: > 100000 nM

O=c1cc(-c2ccccc2)oc2c1ccc1ccccc12 [ALPHA-NAPHTHOFLAVONE]
inhibition (INH) [16]: Dose-Dependent Effect | IC50 [7]: 7.41 nM
